Key:
SARS-CoV-2 = format: cell-based
[1] = Phase 1 and Phase 2 clinical trials; ref Satoh et al., 2009; Kelly et al., 2013; cited from earlier work

Compound | intracellular NP level versus control group (10 μmol/L chloroquine) (SARS-CoV-2) | tolerability in humans [1]
C[C@H]1COC2=C1C(=O)C(=O)c1c2ccc2c1CCCC2(C)C [cryptotanshinone] | comparable NP levels with the control group | 
Cc1coc2c1C(=O)C(=O)c1c-2ccc2c(C)cccc12 [tanshinone I] | comparable NP levels with the control group | 
COCCn1c2c([n+](Cc3cnccn3)c1C)C(=O)c1ccccc1C2=O [YM155] |  | well tolerated
